Measured values reported in US11982676B2, “Near-infrared fluorescent nanoprobe” (VALORISATION-RECHERCHE, LIMITED PARTNERSHIP, priority 2021, dated 2024).

Legend:
[1] = Chemical stability on Si/SiO2: oxygen plasma, thermal annealing, piranha; assay type: physicochemical; conditions: oxygen plasma of 100 W for 10 minutes
Procedure: The chemical stability of the nanohybrids is tested using individualized 6T@BNNT bundles on Si/SiO2 exposed to an oxygen plasma of 100 W for 10 minutes. […] The enhanced stability of the encapsulated dyes has also been observed upon thermal annealing up to 350° C. in air and using piranha solutions (not shown). […] The chemical and physical stability experiments have been repeated on a number of Dyes@BNNT nanohybrids of different lengths deposited on substrates or dispersed in a solution (See e.g. Supplementary Figs. 10 and 11). All of the results lead us to the same conclusion, which underlines the tremendous gain in stability inferred by the confinement of the 1D cavity of BNNTs.

Daphnia pulex = assay: Incubation of Daphnia pulex with samples in FLAMES medium, evaluation of potential toxicity; assay type: in vivo
From the text: The impressive robustness and fading-free properties of the Dyes@BNNT are appealing for bio-imaging applications. FIG. 4 presents an example of the use of nanohybrids to make optical nanoprobes for imaging living Daphnia pulex microorganisms in water—see bright-field image in FIG. 4a #1. Daphnia (also called water fleas) are common planktonic crustaceans, which find use as chemical sensors in ecotoxicology studies, thanks to their high sensitivity to water quality. To acquire the bio-images (FIG. 4a #2-5), we first solubilized the Dyes@BNNTs in a water-based living medium called FLAMES, using a poly (ethylene) glycol derivative (mPEG-DSPE) (Supplementary Section 2.9). […] Living daphniids were imaged under a fluorescence microscope equipped with UBG filter and a 10× objective. […] This natural blue-green signal originates from the auto-fluorescence of the tissues in FLAMES through the UBG filter, which disappears after death or after few minutes only of photobleaching. […]
Before any experiment, many adult individuals of Daphnia pulex (clones DISP 1312) were kept at 22° C. in FLAMES with algae for 4 days, allowing a new reproducing cycle. Then, the specimens were transferred to a FLAMES medium algae-free and maintained this condition for at least 1 day to clean the digestive system and limit the fluorescence from the algae themselves during the images/time lapse acquisition—FIG. 8. […]

HuH6 cells = assay: Two-photon photobleaching test and excitation profile in fixed HuH6 cells; set-up: species or system human; conditions: λex=860 nm, 30 mins, 400 Hz, laser output power 2.55 W
Procedure: To further assess a possible toxicity of the Dyes@BNNT, we performed an additional set of experiments at the scale of a cell. We incubated 10 μg·mL^−1 of a PEG-6T@BNNT solution for 24 hours with human hepatoblastoma HuH6 cells, which is one of the model cell lines used for toxicology studies. […] FIGS. 5a and 5c show fluorescence spectra consistent with DiA (green) and PEG-6T@BNNT (red) separated in the regions 2 and 1, respectively. […] The fluorescence of both the DiA and PEG-6T@BNNT, as a function of the excitation wavelength between 740 nm and 1020 nm, is shown in FIG. 5d. The resonance maximum of DiA is measured at 880 nm, which is distinct from the resonance of the PEG-6T@BNNT located at ˜740 nm, a position similar to that of functionalized polythiophene. […] To directly compare exposed and non-exposed cells, FIG. 5b presents a two-photon hyperspectral fluorescence image taken in a field of view slightly larger than the photobleaching test area. […]
3.2 Characterization by Raman and Photoluminescence. […] The equipment of the different setups is summarized in Table S2 and are described as follows: • The Luminescence images and photobleaching experiments, as presented in FIG. 3, main text, were performed at λex=532 nm using the Raman/PL mapping system RIMA™ (Photon etc.). […]

SMILES | change in PL after oxygen plasma [1] | state of daphniids after first incubation test (Daphnia pulex; free 6T in FLAMES, incubation time of only few minutes) | time after which individuals died (Daphnia pulex; group B, incubated directly with 6T at 100 ug/mL) [h] | fluorescence after two-photon photobleaching test (HuH6 cells)
c1csc(-c2ccc(-c3ccc(-c4ccc(-c5ccc(-c6cccs6)s5)s4)s3)s2)c1 [6T, α-sexithiophene] | completely vanished | found dead | 20 | 
CCCCC/C=C\C/C=C\CCCCCCCCN(CCCCCCCC/C=C\C/C=C\CCCCC)c1ccc(C=Cc2cc[n+](C)cc2)cc1.O=S(=O)([O-])c1ccc(Cl)cc1 [DiA] |  |  |  | significantly photo-bleached
